Experimental data taken from PubChem BioAssay (NCI).
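Cultured in 96-well plates, cells were exposed to test compound for 48 hours across five concentrations. GI50 marks 50% less growth. Definition used: TGI = concentration required for complete inhibition of growth.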

What was measured:
Assay in all cases: NCI-60 cell line screen, 48 h
DMS 273 small cell lung = tested on: DMS 273 small cell lung
DLD-1 colon = tested on: DLD-1 colon
M19-MEL melanoma = tested on: M19-MEL melanoma
KM20L2 colon = tested on: KM20L2 colon
HOP-18 NSCLC = tested on: HOP-18 NSCLC
DMS 114 small cell lung = tested on: DMS 114 small cell lung
XF 498 CNS = tested on: XF 498 CNS
RXF-631 renal = tested on: RXF-631 renal
MDA-N = tested on: MDA-N

Row | SMILES | TGI (DMS 273 small cell lung) [µM] | TGI (DLD-1 colon) [µM] | TGI (M19-MEL melanoma) [µM] | TGI (KM20L2 colon) [µM] | TGI (HOP-18 NSCLC) [µM] | TGI (DMS 114 small cell lung) [µM] | TGI (XF 498 CNS) [µM] | TGI (RXF-631 renal) [µM] | GI50 (MDA-N) [µM] | TGI (MDA-N) [µM] | GI50 (DMS 273 small cell lung) [µM] | GI50 (DLD-1 colon) [µM] | GI50 (KM20L2 colon) [µM] | GI50 (HOP-18 NSCLC) [µM]
1 | COC(=O)C1Cc2c([nH]c3ccccc23)C=N1 (configuration not stated) | > 100 | > 100 | > 100 | > 100 | > 100 | > 100 |  |  |  |  |  |  |  | 
2 | Cc1cc(Cl)ccc1NC(=O)C1C(=O)N(c2ccc(Cl)cc2C)C(=O)/C1=N\N (configuration not stated) |  |  | > 100 | > 100 | > 100 | > 100 | > 100 |  |  |  |  |  |  | 
3 | O=C(/C=C/c1ccccc1F)C(c1ccccc1)c1ccccc1 | 38.1 | 12.7 |  | 15.6 |  |  | 3.56 |  |  |  |  |  |  | 
4 | N#CC(C#N)=C1NC(=O)C(c2ccccc2)C(=O)N1 (configuration not stated) | > 100 | > 100 | > 100 | > 100 |  | > 100 | > 100 | > 100 |  |  |  |  |  | 
5 | COc1nc2c(nc(N)n2C2OC(CO)C(O)C(O)C2O)c(=O)n1C (configuration not stated) |  | > 100 | > 100 | > 100 | > 100 | > 100 | > 100 | > 100 |  |  |  |  |  | 
6 | CC(O)CN(CCN(CC(C)O)CC(C)O)CC(C)O.O=[N+]([O-])O.[Cu+2] (configuration not stated) |  |  |  |  |  |  |  |  | > 100 | > 100 |  |  |  | 
7 | CCCCCCCCCCCCC(Br)C(=O)SCCNC(=O)CCNC(=O)[C@@H](O)C(C)(C)COP(=O)(O)OP(=O)(O)OCC1OC(n2cnc3c(N)ncnc32)C(O)C1OP(=O)(O)O (some centres not stated) | > 56.5 | > 56.5 | > 56.5 | > 56.5 | > 56.5 | > 56.5 | > 56.5 |  |  |  |  |  |  | 
8 | COC(=O)/C(C#N)=C1\N=NNN1CCCc1ccccc1 | > 100 | > 100 | > 100 |  | > 100 | > 100 |  | > 100 |  |  |  |  |  | 
9 | CC(CN(CP(=O)([O-])[O-])CP(=O)([O-])[O-])N(CP(=O)([O-])[O-])CP(=O)([O-])[O-].N[C@@H]1CCCC[C@@H]1N.[Pt+2] (configuration not stated) | > 100 | > 100 |  | > 100 | > 100 |  |  |  |  |  | > 100 | > 100 | > 100 | > 100
10 | Cc1cc2c(=O)cc(-c3ccc(Cl)cc3)oc2c(C(=O)O)c1C | > 100 | > 100 | > 100 | > 100 | > 100 | > 100 | > 100 | > 100 |  |  |  |  |  | 
11 | C/C=C/C1(NS(=O)(=O)c2ccc(C)cc2)CCC(C(C)(C)C)CC1 (configuration not stated) | 31.5 | > 100 | 41 | 38.7 | > 100 | 62.3 | 39.3 | 71.8 |  |  |  |  |  | 
12 | O=C1c2cccnc2-c2nc(-c3ccc([N+](=O)[O-])cc3)cc3c2c1nc1ccccc13 |  |  |  |  |  |  |  |  | 1.75 | 3.22 |  |  |  | 
13 | CCOc1ccc(NC(=O)C2=C(C)NC(C)=C(C(=O)Nc3ccc(OCC)cc3)C2c2ccc([N+](=O)[O-])cc2)cc1 |  | > 100 | > 100 | 56.3 |  | > 100 | 70.7 |  |  |  |  |  |  | 
14 | C[Si](C)(C)/C(Br)=C\CCN1C(=O)CCC1O (configuration not stated) | > 100 |  | > 100 | > 100 | > 100 | > 100 | > 100 |  |  |  |  |  |  | 
15 | CC(C)(C)c1cc(C(O)(C(F)(F)F)C(F)(F)F)c2c(c1)C(C(F)(F)F)(C(F)(F)F)OC(c1ccccc1)(C(C)(C)C)N2 (configuration not stated) | 13.6 | 14.6 | 13.8 | 21 | 6.81 | 9.8 | 6.24 |  |  |  |  |  |  | 
16 | Cc1ccccc1NC(=O)c1[nH]c(=S)nc(N)c1-c1ccccc1C | > 100 | > 100 | > 100 | > 100 | > 100 | > 100 |  |  |  |  |  |  |  | 

Row | SMILES | TGI (DMS 273 small cell lung) [µM] | TGI (DLD-1 colon) [µM] | TGI (M19-MEL melanoma) [µM] | TGI (KM20L2 colon) [µM] | TGI (HOP-18 NSCLC) [µM] | TGI (DMS 114 small cell lung) [µM] | TGI (XF 498 CNS) [µM] | TGI (RXF-631 renal) [µM] | GI50 (MDA-N) [µM] | TGI (MDA-N) [µM] | GI50 (DMS 273 small cell lung) [µM] | GI50 (DLD-1 colon) [µM] | GI50 (KM20L2 colon) [µM] | GI50 (HOP-18 NSCLC) [µM]
17 | Cc1cc(Cl)ccc1N1C(=O)C(=O)C(c2nc3ccccc3s2)C(=O)C1=O | > 100 | > 100 |  | > 100 | > 100 | > 100 | > 100 | > 100 |  |  |  |  |  | 
18 | CCOC1NC(=O)Oc2ccccc21 (configuration not stated) |  |  |  |  |  |  |  |  |  | > 100 |  |  |  | 
19 | Cc1ccc(S(=O)(=O)N2CCCCC2CCO)cc1 (configuration not stated) | > 100 | > 100 | > 100 | > 100 | > 100 | > 100 |  |  |  |  |  |  |  | 
20 | O=C1C(c2ccccc2)=C(c2ccccc2)C(c2ccccc2)/C1=C1\C(=O)C(c2ccccc2)=C(c2ccccc2)C1c1ccccc1 (configuration not stated) | > 100 | > 100 | > 100 | > 100 | > 100 | > 100 |  |  |  |  |  |  |  | 
21 | O=S1(=O)CSc2ccc3ccccc3c2-c2c1ccc1ccccc21 | > 100 | > 100 | > 100 |  | > 100 | > 100 | > 100 | > 100 |  |  |  |  |  | 
22 | O=C(CC1C(=O)Nc2ccccc2S1=O)Nc1cccc(Cl)c1 (configuration not stated) |  | > 100 | > 100 | > 100 | > 100 | > 100 | > 100 |  |  | 56.1 |  |  |  | 
23 | Cc1cccc(C)c1NC(=O)C(=O)C1C(=O)N(c2ccccc2)N=C1N (configuration not stated) | > 100 | > 100 | > 100 | > 100 | > 100 | > 100 |  |  |  |  |  |  |  | 
24 | CC(C)(C)c1ccccc1NS(=O)(=O)c1ccccc1 | > 100 |  | > 100 | > 100 |  | > 100 | > 100 | > 100 |  |  |  |  |  | 
25 | O=c1c2ccccc2nc(-c2ccc(Cl)cc2)n1O |  |  |  |  |  |  |  |  |  | > 100 |  |  |  | 
26 | COc1ccccc1NC(=O)C1=C(C)NC(C)=C(C(=O)Nc2ccccc2OC)C1c1ccc(C(C)C)cc1 | > 100 | > 100 | > 100 | > 100 | > 100 |  | > 100 | > 100 |  |  |  |  |  | 
27 | O=C(O)/C(Cl)=C(/Cl)C(=O)Nc1cccc(Cl)c1 | 18.9 | 34 | 30.4 | 47.3 | 43.3 | 32.2 | 34.3 | 49.1 |  | 37.4 |  |  |  | 
28 | O=Cc1ccc(C(F)(F)F)cc1.[C-]#[O+].[C-]#[O+].[C-]#[O+].[Cr] |  |  |  |  |  |  |  |  | 18 | 55.1 |  |  |  | 
29 | NCCOc1ccccn1 |  |  |  |  |  |  |  |  |  | > 100 |  |  |  | 
30 | O=C(OCCOCCOC(=O)c1c[nH]cc1-c1ccccc1)c1c[nH]cc1-c1ccccc1 | 30.6 | 71.4 | 34 | 46 |  | 32.5 | 34.4 |  |  |  |  |  |  | 
31 | CC(C)(C)c1ccc(-c2nnc(SCc3ccc(Cl)cc3)n2-c2cccc(C(F)(F)F)c2)cc1 |  |  |  |  |  |  |  |  |  | > 100 |  |  |  | 
